Patent US12145947B2, “Pyrimidine based modulators and uses thereof” (Quanta Therapeutics, Inc., priority 2022, dated 2024)

Biological target: T1, GST-tagged KRAS-G12D (2-169) (Homo sapiens, UniProt P01116, G12D)
T1 construct: GST-tagged KRAS-G12D (2-169, Reaction Biology, MSC-11-539); purchased Reaction Biology MSC-11-539 (KRAS G12D); MSC-11-502 (SOS1cat)
Assay: Nucleotide exchange assay (NEA), SOS-mediated, HTRF, KRAS G12D
Assay type: biochemical
Conditions: Table 4, IC50 extracted at 30 min
Method in brief: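 IC50 values come from 4-parameter fits at the 30 min time point of an SOS-driven exchange read by HTRF, normalised to DMSO (0%) and SOS-free blank (100%). Final reaction: 5 nM GST-KRAS-G12D (2-169), 20 nM SOScat, 150 nM fluorescent GTP-DY-647P1, after 1 h RT compound preincubation with KRAS and Tb-cryptate anti-GST.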

T1 sequence (P01116 2-169 isoform P01116-2 G12D): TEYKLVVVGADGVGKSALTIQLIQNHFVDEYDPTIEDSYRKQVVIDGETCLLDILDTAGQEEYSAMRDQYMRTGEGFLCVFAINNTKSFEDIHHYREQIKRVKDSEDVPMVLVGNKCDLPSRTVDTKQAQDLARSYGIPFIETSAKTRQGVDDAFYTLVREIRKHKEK

Row | Structure (SMILES) | IC50 [nM] | IC50 (listed as 74.2) [nM]
1 | CN(C)CC1(COc2nc(N3C[C@H]4CC[C@@H](C3)N4)c(C#N)c(N3CC4(CCc5sc(N)c(C#N)c54)C3)n2)CC1(F)F (mixture of isomers) [Compound 74, 2-amino-1′-[5-cyano-6-(3,8-diazabicyclo[3.2.1]octan-3-yl)-2-[[1-[(dimethylamino)methyl]-2,2-difluoro-cyclopropyl]methoxy]pyrimidin-4-yl]spiro[5,6-dihydrocyclopenta[b]thiophene-4,3′-azetidine]-3-carbonitrile] | 10 to 100 | –
2 | C[C@@]1(O)CCCN(c2nc(OC[C@@]34CCCN3C[C@H](F)C4)nc(N3CC4(CCc5sc(N)c(C#N)c54)C3)c2C#N)C1 [Compound 27, 2-amino-1′-[5-cyano-2-[[(2R,8S)-2-fluoro-1,2,3,5,6,7-hexahydropyrrolizin-8-yl]methoxy]-6-[(3R)-3-hydroxy-3-methyl-1-piperidyl]pyrimidin-4-yl]spiro[5,6-dihydrocyclopenta[b]thiophene-4,3′-azetidine]-3-carbonitrile] | 10 to 100 | –
3 | N#Cc1c(N2CCCC(O)CC2)nc(OC[C@@]23CCCN2C[C@H](F)C3)nc1N1CC2(CCc3sc(N)c(C#N)c32)C1 (stereo partly drawn) [Compound 40, 2-amino-1′-[5-cyano-6-(4-hydroxyazepan-1-yl)-2-[[(2R,8S)-2-fluoro-1,2,3,5,6,7-hexahydropyrrolizin-8-yl]methoxy]pyrimidin-4-yl]spiro[5,6-dihydrocyclopenta[b]thiophene-4,3′-azetidine]-3-carbonitrile] | 10 to 100 | –
4 | N#Cc1c(N2CC3COCC(C2)N3)nc(OC[C@]23CCCN2C[C@@H](F)C3)nc1N1CC2(CCc3sc(N)c(C#N)c32)C1 [Compound 43, 2-amino-1′-[5-cyano-2-[[(2S,8R)-2-fluoro-1,2,3,5,6,7-hexahydropyrrolizin-8-yl]methoxy]-6-(3-oxa-7,9-diazabicyclo[3.3.1]nonan-7-yl)pyrimidin-4-yl]spiro[5,6-dihydrocyclopenta[b]thiophene-4,3′-azetidine]-3-carbonitrile] | 10 to 100 | –
5 | N#Cc1c(N2CCCC(=O)CC2)nc(OC[C@@]23CCCN2C[C@H](F)C3)nc1N1CC2(CCc3sc(N)c(C#N)c32)C1 [Compound 49, 2-amino-1′-[5-cyano-2-[[(2R,8S)-2-fluoro-1,2,3,5,6,7-hexahydropyrrolizin-8-yl]methoxy]-6-(4-oxoazepan-1-yl)pyrimidin-4-yl]spiro[5,6-dihydrocyclopenta[b]thiophene-4,3′-azetidine]-3-carbonitrile] | 10 to 100 | –
6 | N#Cc1c(N2C[C@H]3CC[C@@H](C2)N3)nc(OCC2(CN3CC[S+]([O-])CC3)CC2)nc1N1CC2(CCc3sc(N)c(C#N)c32)C1 [Compound 71, 2-amino-1′-[5-cyano-6-[(1R,5S)-3,8-diazabicyclo[3.2.1]octan-3-yl]-2-[[1-[(1-oxo-1,4-thiazinan-4-yl)methyl]cyclopropyl]methoxy]pyrimidin-4-yl]spiro[5,6-dihydrocyclopenta[b]thiophene-4,3′-azetidine]-3-carbonitrile] | < 10 | –
7 | N#Cc1c(N2C[C@H]3CC[C@@H](C2)N3)nc(OCC2(CN3CCOCC3)CC2)nc1N1CC2(CSc3sc(N)c(C#N)c32)C1 [Compound 73, 5-amino-1′-[5-cyano-2-[[1-(morpholinomethyl)cyclopropyl]methoxy]-6-[(1R,5S)-3,8-diazabicyclo[3.2.1]octan-3-yl]pyrimidin-4-yl]spiro[2H-thieno[2,3-b]thiophene-3,3′-azetidine]-4-carbonitrile] | < 10 | –
8 | CN(C)CC1(COc2nc(N3CC4CCC(C3)N4)c(C#N)c(N3CC4(CCc5sc(N)c(C#N)c54)C3)n2)CC1(F)F (centres unmarked) [Compound 74B, 2-amino-1′-[5-cyano-6-(3,8-diazabicyclo[3.2.1]octan-3-yl)-2-[[(1*)-1-[(dimethylamino)methyl]-2,2-difluoro-cyclopropyl]methoxy]pyrimidin-4-yl]spiro[5,6-dihydrocyclopenta[b]thiophene-4,3′-azetidine]-3-carbonitrile] | – | 10 to 100
9 | N#Cc1c(N2CCCn3nc(-c4ccccn4)c(Cl)c3C2)nc(OCC2(CN3CCOCC3)CC2)nc1N1CC2(CCc3sc(N)c(C#N)c32)C1 [Compound 75, 2-amino-1′-[6-[3-chloro-2-(2-pyridyl)-4,6,7,8-tetrahydropyrazolo[1,5-a][1,4]diazepin-5-yl]-5-cyano-2-[[1-(morpholinomethyl)cyclopropyl]methoxy]pyrimidin-4-yl]spiro[5,6-dihydrocyclopenta[b]thiophene-4,3′-azetidine]-3-carbonitrile] | < 10 | –
10 | N#Cc1c(N2C[C@H]3CC[C@@H](C2)N3)nc(OCc2ccccc2)nc1N1CC2(CCc3sc(N)c(C#N)c32)C1 [Compound 76, 2-amino-1′-[2-benzyloxy-5-cyano-6-[(1R,5S)-3,8-diazabicyclo[3.2.1]octan-3-yl]pyrimidin-4-yl]spiro[5,6-dihydrocyclopenta[b]thiophene-4,3′-azetidine]-3-carbonitrile] | < 10 | –
11 | N#Cc1c(N2C[C@H]3CC[C@@H](C2)N3)nc(OC[C@@H]2CCN2CC(F)(F)F)nc1N1CC2(CCc3sc(N)c(C#N)c32)C1 [Compound 92, 2-amino-1′-[5-cyano-6-[(1R,5S)-3,8-diazabicyclo[3.2.1]octan-3-yl]-2-[[(2S)-1-(2,2,2-trifluoroethyl)azetidin-2-yl]methoxy]pyrimidin-4-yl]spiro[5,6-dihydrocyclopenta[b]thiophene-4,3′-azetidine]-3-carbonitrile] | 10 to 100 | –
12 | C=C1CN2CCCC2(COc2nc(N3CCCn4nc(C(=O)N(C)C)c(Cl)c4C3)c(C#N)c(N3CC4(CCc5sc(N)c(C#N)c54)C3)n2)C1 (centres unmarked) [Compound 93, 5-[6-(2-amino-3-cyano-spiro[5,6-dihydrocyclopenta[b]thiophene-4,3′-azetidine]-1′-yl)-5-cyano-2-[(6-methylene-2,3,5,7-tetrahydro-1H-pyrrolizin-8-yl)methoxy]pyrimidin-4-yl]-3-chloro-N,N-dimethyl-4,6,7,8-tetrahydropyrazolo[1,5-a][1,4]diazepine-2-carboxamide] | < 10 | –
13 | C=C1CN2CCCC2(COc2nc(N3C[C@H]4CC[C@@H](C3)N4)c(C#N)c(N3CC4(CCc5sc(N)c(C#N)c54)C3)n2)C1 (stereo partly drawn) [Compound 94, 2-amino-1′-[5-cyano-2-[(6-methylene-2,3,5,7-tetrahydro-1H-pyrrolizin-8-yl)methoxy]-6-[(1R,5S)-3,8-diazabicyclo[3.2.1]octan-3-yl]pyrimidin-4-yl]spiro[5,6-dihydrocyclopenta[b]thiophene-4,3′-azetidine]-3-carbonitrile] | < 10 | –
14 | CN(C)CC1(COc2nc(N3CCCn4nc(C(=O)N(C)C)c(Cl)c4C3)c(C#N)c(N3CC4(CCCc5sc(N)c(C#N)c54)C3)n2)CC1(F)F (centres unmarked) [Compound 96, 5-[6-(2-amino-3-cyano-spiro[6,7-dihydro-5H-benzothiophene-4,3′-azetidine]-1′-yl)-5-cyano-2-[[1-[(dimethylamino)methyl]-2,2-difluoro-cyclopropyl]methoxy]pyrimidin-4-yl]-3-chloro-N,N-dimethyl-4,6,7,8-tetrahydropyrazolo[1,5-a][1,4]diazepine-2-carboxamide] | < 10 | –
15 | Cn1nccc1COc1nc(N2C[C@H]3CC[C@@H](C2)N3)c(C#N)c(N2CC3(CCc4sc(N)c(C#N)c43)C2)n1 [Compound 97, 2-amino-1′-[5-cyano-2-[(2-methylpyrazol-3-yl)methoxy]-6-[(1R,5S)-3,8-diazabicyclo[3.2.1]octan-3-yl]pyrimidin-4-yl]spiro[5,6-dihydrocyclopenta[b]thiophene-4,3′-azetidine]-3-carbonitrile] | < 10 | –
16 | N#Cc1c(N2C[C@H]3CC[C@@H](C2)N3)nc(OCC2(c3ccn[nH]3)CC2)nc1N1CC2(CCc3sc(N)c(C#N)c32)C1 [Compound 98, 2-amino-1′-[5-cyano-6-[(1R,5S)-3,8-diazabicyclo[3.2.1]octan-3-yl]-2-[[1-(1H-pyrazol-5-yl)cyclopropyl]methoxy]pyrimidin-4-yl]spiro[5,6-dihydrocyclopenta[b]thiophene-4,3′-azetidine]-3-carbonitrile] | < 10 | –
17 | N#Cc1c(N2C[C@H]3CC[C@@H](C2)N3)nc(OC[C@@]23CCCN2C[C@H](F)C3)nc1N1CC2(C1)c1c(sc(N)c1C#N)CC1CC12 (stereo partly drawn) [Compound 99, 2-amino-1′-[5-cyano-6-[(1R,5S)-3,8-diazabicyclo[3.2.1]octan-3-yl]-2-[[(2R,8S)-2-fluoro-1,2,3,5,6,7-hexahydropyrrolizin-8-yl]methoxy]pyrimidin-4-yl]spiro[4a,5,5a,6-tetrahydrocyclopropa[f]benzothiophene-4,3′-azetidine]-3-carbonitrile] | < 10 | –
18 | N#Cc1c(N2C[C@H]3CC[C@@H](C2)N3)nc(OCC2(CN3CCOCC3)CC2)nc1N1CC2(C1)SCc1sc(N)c(C#N)c12 [Compound 100, 2-amino-1′-[5-cyano-6-[(1R,5S)-3,8-diazabicyclo[3.2.1]octan-3-yl]-2-[[1-(morpholinomethyl)cyclopropyl]methoxy]pyrimidin-4-yl]spiro[6H-thieno[2,3-c]thiophene-4,3′-azetidine]-3-carbonitrile] | < 10 | –
19 | N#Cc1c(N2C[C@H]3CC[C@@H](C2)N3)nc(OCC2(CN3CCOCC3)CC2)nc1N1CC2(C1)c1c(sc(N)c1C#N)CC2F (stereo partly drawn) [Compound 101, 2-amino-1′-[5-cyano-6-[(1R,5S)-3,8-diazabicyclo[3.2.1]octan-3-yl]-2-[[1-(morpholinomethyl)cyclopropyl]methoxy]pyrimidin-4-yl]-5-fluoro-spiro[5,6-dihydrocyclopenta[b]thiophene-4,3′-azetidine]-3-carbonitrile] | < 10 | –
20 | Cc1n[nH]nc1COc1nc(N2C[C@H]3CC[C@@H](C2)N3)c(C#N)c(N2CC3(CCc4sc(N)c(C#N)c43)C2)n1 [Compound 108] | 10 to 100 | –
